Broadly, the pEC50 is the EC50 on a negative log10 scale, so that one unit is a factor of ten. Usually Emax stands for the maximal effect, on the per cent scale that the assay sets.

From US20190062305A1, “PYRIDYL OR PYRAZINYL COMPOUNDS CARRYING A METHYL-BOUND ALPHA-AMINO ACID AMIDE GROUP” (ABBVIE DEUTSCHLAND GMBH & CO. KG, priority 2015, published 2019) come the findings set out here.

Data set [1] in a line: Metabolic stability in human liver microsomes, unbound intrinsic clearance (Cl int/fu mic). The class given is in vitro ADME. Conditions: human, liver microsomes, pH 7.4, human liver microsomes 0.25 mg/mL, 0.5 μM compound, NADPH, read-out: Cl int, mic unb. (h) [l/h/kg] (unbound intrinsic clearance, human). On the procedure:
Samples of the tested compounds (0.5 μM) were preincubated together with human liver microsomes (0.25 mg of microsomal protein/mL) in 0.05 M potassium phosphate buffer of pH 7.4 in microtiter plates at 37° C. for 5 minutes. The reaction was started by adding NADPH (1.0 mM). After 0, 5, 10, 15, 20 and 30 minutes, an aliquot was removed, the reaction was cooled and stopped by adding twice the amount of quench solution consisting of acetonitrile/methanol 1:1, and containing 0.2 μM carbutamide as internal standard. The samples were frozen until analyzed. The remaining concentration of undegraded test substance was determined by liquid chromatography-tandem mass spectrometry (LC-MS/MS). The half-life (t1/2) was determined from the gradient of the ratio of the signal of (test substance/internal standard)/unit time plot, allowing the calculation of the half-life of the test substance, assuming first order kinetics, from the decrease in the concentration of the compound with time. The microsomal clearance ([…]) was calculated as follows: […]=((ln(2)/t 1⁄2)/Microsomal Protein Concentration (mg/ml))*1000, leading to the unit of uL/min/mg. The scaled clearance (mClin_scaled) was calculated as […]_scaled=m CLint*(Microsomal Yield (mg/kg BW))/1000000*60, leading to the units L/h/kg. The Microsomal Yield is defined by the specifics of the used microsomes. Calculations were modified from references: Di, The Society for Biomolecular Screening, 2003, 453-462; Obach, D M D, 1999 vol 27. N 11, 1350-1359. A suspension of 0.25 mg/ml microsomal protein spiked with 0.5 μM of test compound was pipetted on one side of a HTDialysis device (HTDialysis LLC, 37 Ledgewood Drive, Gales Fery CT 06335) separated by a membrane with a MWcut off 12-14 K. 50 mM K-Phosphate buffer (pH 7.4) was added on the other side of the well. After incubation at 37° C. for 4 h while shaking at 150 rpm, aliquots of both sides were taken, quenched with MeOH/ACN 1:1 and 0.2 μM of internal standard and frozen until analysis by LCMSMS Cl int unbound=Cl int/fu mic
A general note: Liver microsomes are vesicles of endoplasmic reticulum, rich in cytochrome P450 enzymes.

The target of the next data set is T1, 5-HT2C receptor (Homo sapiens, UniProt P28335).
T1 construct: host or cells: U2OS
T1 sequence (P28335 33-458): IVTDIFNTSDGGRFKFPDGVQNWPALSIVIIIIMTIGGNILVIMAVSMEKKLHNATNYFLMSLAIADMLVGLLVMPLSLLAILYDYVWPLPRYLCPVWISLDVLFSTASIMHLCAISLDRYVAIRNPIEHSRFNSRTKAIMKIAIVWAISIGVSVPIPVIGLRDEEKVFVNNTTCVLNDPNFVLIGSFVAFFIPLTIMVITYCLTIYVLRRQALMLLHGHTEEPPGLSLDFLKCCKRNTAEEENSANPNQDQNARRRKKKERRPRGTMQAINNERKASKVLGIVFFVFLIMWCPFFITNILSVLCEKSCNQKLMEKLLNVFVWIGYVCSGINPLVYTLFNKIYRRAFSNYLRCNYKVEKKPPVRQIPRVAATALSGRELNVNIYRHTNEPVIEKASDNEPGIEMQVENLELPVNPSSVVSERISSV
T1 sequence (P32121 whole entry partner): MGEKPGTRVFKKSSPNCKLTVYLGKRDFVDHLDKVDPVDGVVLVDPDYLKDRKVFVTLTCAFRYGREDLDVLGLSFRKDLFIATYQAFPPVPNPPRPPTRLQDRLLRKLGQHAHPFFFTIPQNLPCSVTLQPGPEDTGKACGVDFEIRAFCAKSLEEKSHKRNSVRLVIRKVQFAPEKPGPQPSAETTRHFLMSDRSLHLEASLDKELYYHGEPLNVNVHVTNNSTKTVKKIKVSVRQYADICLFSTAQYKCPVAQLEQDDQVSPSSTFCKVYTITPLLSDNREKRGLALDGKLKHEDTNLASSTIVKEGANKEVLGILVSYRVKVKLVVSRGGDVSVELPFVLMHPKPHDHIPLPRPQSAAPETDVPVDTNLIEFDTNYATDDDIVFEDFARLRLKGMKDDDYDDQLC
Description: Human 5-HT2C functional assay (beta-arrestin2 recruitment, U2OS_HTR2C_β-Arrestin cells). It is filed as cell-based. The settings on record: for pEC50: beta-arrestin2 recruitment, U2OS_HTR2C_β-Arrestin cells, 1.5 h incubation, read-out: EC50 5-HT2C (potency in functional assay); for Emax: relative efficacy vs response to 10 μM 5-HT or maximal 5-HT effect (100%). On the procedure: The functional activity of compounds of formula I was assayed by incubation with U2OS_HTR2C_β-Arrestin cells (DiscoverX, 93-0289C3) to induce beta-arrestin2 recruitment to the 5-HT2C receptor. The agonist-induced recruitment and proximity of the receptor and beta-arrestin2 leads to complementation and formation of active β-galactosidase. The enzyme complementation results in enzyme activity, which is measured following the termination of the agonist incubation using DiscoveRx's detection reagent, which contains a chemiluminescent substrate which produces a high intensity signal. Cells were plated and a medium-change to a 1% serum containing medium was performed 24h later. The next day, test compounds were added and incubated for 1.5 h before addition of detection reagent.
The response produced was measured and compared with the response produced by 10 [mu]M 5-HT or the maximal effect induced by 5-HT (defined as 100%) to which it was expressed as a percentage response (relative efficacy). Dose response curves were constructed using Graphpad Prism (Graph Software Inc.) or using in house adapted software using a 4 parameter dose response model with variable slope (fit=(Bottom+(Top-Bottom)/(1+10^∧((Log EC50−x)*HillSlope))res=(y-fit)). Results are compiled in the table below.

The structures appear in SMILES notation. pEC50: −log10 of the molar value. Counter-ions that a name gives are not always drawn. Some results are limits rather than exact numbers.

As to `COc1nc(N2CCC(Oc3ccccc3)CC2)c(F)cc1CNC(=O)[C@@H]1CCCN1` [Example 195, (2S)—N-[[5-Fluoro-2-methoxy-6-(4-phenoxy-1-piperidyl)-3-pyridyl]methyl]-pyrrolidine-2-carboxamide; 2,2,2-trifluoroacetic Acid], the CLint scaled at 0.5 μM in data set [1] is 50 to 500 L/h/kg. Also, at 5-HT2C receptor, the negative logarithm of the EC50 (pEC50) was 6.70 to 7.70 and the maximal response (Emax) is more than 70%.

As to `COc1nc(OC2CCC(F)(F)CC2)c(F)cc1CNC(=O)[C@@H]1C[C@@H](C)CN1C` [Example 61, (2S,4R)—N-[[6-(4,4-Difluorocyclohexoxy)-5-fluoro-2-methoxy-3-pyridyl]methyl]-1,4-dimethyl-pyrrolidine-2-carboxamide Hydrochloride], the CLint scaled at 0.5 μM in data set [1] was in the range of 5 to 50 L/h/kg. At 5-HT2C receptor, the pEC50 is 6.70 to 7.70 and the maximal response (Emax) was more than 70%.

`COc1nc(OCC2(C(F)(F)F)CC2)c(F)cc1CNC(=O)[C@@H]1CCCN1` [Example 48, (2S)—N-[[5-Fluoro-2-methoxy-6-[[1-(trifluoromethyl)cyclopropyl]methoxy]-3-pyridyl]methyl]pyrrolidine-2-carboxamide; Succinic Acid]: the CLint scaled at 0.5 μM in data set [1] was less than 5 L/h/kg. Besides, at 5-HT2C receptor, the negative logarithm of the EC50 (pEC50) was more than 7.70 and the maximal response (Emax) was more than 70%.

Consider `COc1nc(N2CCCCC2)c(F)cc1CNC(=O)[C@@H]1CCCN1` [Example 128, (2S)—N-[[5-Fluoro-2-methoxy-6-(1-piperidyl)-3-pyridyl]methyl]pyrrolidine-2-carboxamide], for which the CLint scaled at 0.5 μM in data set [1] was less than 5 L/h/kg. Further, on 5-HT2C receptor, the pEC50 was 6.70 to 7.70 and the Emax is more than 70%.

For `COc1nc(OC2CC(F)(F)C2)c(F)cc1CN(C)C(=O)[C@@H]1CCCN1C` [Example 99, (2S)—N-[[6-(3,3-Difluorocyclobutoxy)-5-fluoro-2-methoxy-3-pyridyl]methyl]-N,1-dimethyl-pyrrolidine-2-carboxamide Hydrochloride], in data set [1], the CLint scaled at 0.5 μM is less than 5 L/h/kg. On 5-HT2C receptor, the pEC50 was 6.70 to 7.70 and the Emax was in the range of 50 to 70%.

For `COc1nc(O[C@H]2CC[C@H](F)CC2)c(F)cc1CNC(=O)[C@@H]1CCCN1` [Example 31, (2S)—N-[[5-Fluoro-6-(trans-4-fluorocyclohexoxy)-2-methoxy-3-pyridyl]methyl]-pyrrolidine-2-carboxamide; Fumaric Acid], the CLint scaled at 0.5 μM in data set [1] was less than 5 L/h/kg. For the same compound, at 5-HT2C receptor, the negative-log EC50 (pEC50) was more than 7.70 and the Emax was more than 70%.

On to `COc1nc(OC2CC(F)(F)C2)cnc1CNC(=O)[C@@H]1CCCN1` [Example 107, (2S)—N-[[5-(3,3-Difluorocyclobutoxy)-3-methoxy-pyrazin-2-yl]methyl]pyrrolidine-2-carboxamide; 2,2,2-trifluoroacetic Acid], for which the CLint scaled at 0.5 μM in data set [1] is less than 5 L/h/kg. Further, on 5-HT2C receptor, the negative-log EC50 (pEC50) was 6.00 to 6.70 and the Emax was more than 70%.

For the compound `COc1nc(OCC(F)(F)F)c(F)cc1CN(C)C(=O)[C@@H]1CCCN1C` [Example 113, (2S)—N-[[5-Fluoro-2-methoxy-6-(2,2,2-trifluoroethoxy)-3-pyridyl]methyl]-N,1-dimethyl-pyrrolidine-2-carboxamide Hydrochloride], the CLint scaled at 0.5 μM in data set [1] is less than 5 L/h/kg. Besides, on 5-HT2C receptor, the pEC50 was 6.00 to 6.70 and the Emax fell in the range of 30 to 50%.

Take `COc1nc(O[C@H]2CCC(F)(F)C2)c(F)cc1CNC(=O)[C@@H]1CCCN1C` [Example 26, (2S)—N-[[6-[(1S)-3,3-Difluorocyclopentoxy]-5-fluoro-2-methoxy-3-pyridyl]methyl]-1-methyl-pyrrolidine-2-carboxamide Hydrochloride]: the CLint scaled at 0.5 μM in data set [1] is less than 5 L/h/kg. Also, on 5-HT2C receptor, the pEC50 was more than 7.70 and the Emax was more than 70%.

As for `COc1nc(OC2CCC(F)(F)CC2)c(F)cc1CNC(=O)[C@@H]1C[C@@H](F)CN1` [Example 34, (2S,4R)—N-[[6-(4,4-Difluorocyclohexoxy)-5-fluoro-2-methoxy-3-pyridyl]methyl]-4-fluoro-pyrrolidine-2-carboxamide; Fumaric Acid], the CLint scaled at 0.5 μM in data set [1] was less than 5 L/h/kg. At 5-HT2C receptor, the negative-log EC50 (pEC50) is more than 7.70 and the maximal effect (Emax) was more than 70%.

Consider `COc1nc(OC2CCC(C(F)(F)F)CC2)c(F)cc1CNC(=O)[C@@H]1C[C@@H](C)CN1` (stereo partly drawn) [Example 60, (2S,4R)—N-[[5-Fluoro-2-methoxy-6-[4-(trifluoromethyl)cyclohexoxy]-3-pyridyl]methyl]-4-methyl-pyrrolidine-2-carboxamide Hydrochloride], for which the CLint scaled at 0.5 μM in data set [1] lay within 50 to 500 L/h/kg. Moreover, on 5-HT2C receptor, the pEC50 was 6.70 to 7.70 and the maximal effect (Emax) fell in the range of 50 to 70%.

Regarding `COc1nc(NC2CCC2C(F)(F)F)c(F)cc1CNC(=O)[C@@H]1CCCN1` (stereo partly drawn) [Example 186, (2S)—N-[[5-Fluoro-2-methoxy-6-[[2-(trifluoromethyl)cyclobutyl]amino]-3-pyridyl]-methyl]pyrrolidine-2-carboxamide], in data set [1], the CLint scaled at 0.5 μM was less than 5 L/h/kg. On 5-HT2C receptor, the pEC50 was 6.70 to 7.70 and the maximal response (Emax) was more than 70%.

Regarding `COc1nc(OCC(C)(C(F)(F)F)C(F)(F)F)c(F)cc1CNC(=O)[C@@H]1CCCN1` [Example 109, (2S)—N-[[5-Fluoro-2-methoxy-6-[3,3,3-trifluoro-2-methyl-2-(trifluoromethyl)propoxy]-3-pyridyl]methyl]pyrrolidine-2-carboxamide Hydrochloride], the CLint scaled at 0.5 μM in data set [1] was in the range of 50 to 500 L/h/kg. Besides, on 5-HT2C receptor, the pEC50 is more than 7.70 and the Emax is more than 70%.

Take `COc1nc(-c2ccccc2)c(F)cc1CNC(=O)[C@@H]1CCCN1` [Example 125, (2S)—N-[(5-Fluoro-2-methoxy-6-phenyl-3-pyridyl)methyl]pyrrolidine-2-carboxamide; 2,2,2-trifluoroacetic Acid]: the CLint scaled at 0.5 μM in data set [1] was in the range of 5 to 50 L/h/kg. For the same compound, at 5-HT2C receptor, the negative logarithm of the EC50 (pEC50) is 6.00 to 6.70 and the Emax is more than 70%.

In the case of `COc1nc(OC2CC(F)(F)C2)c(F)cc1CNC(=O)[C@@H]1CCCN1` [Example 44, (2S)—N-[[6-(3,3-Difluorocyclobutoxy)-5-fluoro-2-methoxy-3-pyridyl]methyl]-pyrrolidine-2-carboxamide; Succinic Acid], the CLint scaled at 0.5 μM in data set [1] was less than 5 L/h/kg. For the same compound, on 5-HT2C receptor, the pEC50 was more than 7.70 and the Emax is more than 70%.

Take `COc1nc(OCC2(C(F)F)CC2)c(F)cc1CNC(=O)[C@@H]1CCCN1` [Example 97, (2S)—N-[[6-[[1-(Difluoromethyl)cyclopropyl]methoxy]-5-fluoro-2-methoxy-3-pyridyl]methyl]pyrrolidine-2-carboxamide; (2S,3S)-2,3-dihydroxybutanedioic Acid]: in data set [1], the CLint scaled at 0.5 μM was less than 5 L/h/kg. Besides, on 5-HT2C receptor, the pEC50 is more than 7.70 and the Emax is more than 70%.

As for `COc1nc(N2CCC(F)(F)CC2)c(F)cc1CN(C)C(=O)[C@@H]1CCCN1` [Example 165, (2S)—N-[[6-(4,4-Difluoro-1-piperidyl)-5-fluoro-2-methoxy-3-pyridyl]methyl]-N-methyl-pyrrolidine-2-carboxamide; 2,2,2-trifluoroacetic Acid], in data set [1], the CLint scaled at 0.5 μM is less than 5 L/h/kg. Also, on 5-HT2C receptor, the negative logarithm of the EC50 (pEC50) was 6.70 to 7.70 and the Emax lay in the range of 50 to 70%.

With `COc1nc(O[C@@H]2CCCC[C@H]2F)c(F)cc1CNC(=O)[C@@H]1CCCN1` [Example 55, (2S)—N-[[5-Fluoro-6-[(1R,2R)-2-fluorocyclohexoxy]-2-methoxy-3-pyridyl]methyl]pyrrolidine-2-carboxamide; 2,2,2-trifluoroacetic Acid], in data set [1], the CLint scaled at 0.5 μM was less than 5 L/h/kg. At 5-HT2C receptor, the pEC50 is more than 7.70 and the Emax is more than 70%.
